# Results published in paper doi:10.1101/2023.11.08.566240v2, “Divergent Protein Kinase A contributes to the regulation of flagellar waveforms in Leishmania mexicana” (biorxiv, 2025).
# Target: T1, LmxPKAR1-LmxPKAC1 (mNG::PKAC1) (Leishmania mexicana, UniProt E9AP50)
# T1 construct: gene LMXM_13_0160; with protein kinase A catalytic subunit isoform 1
# T1 sequence (E9AP50 1-503): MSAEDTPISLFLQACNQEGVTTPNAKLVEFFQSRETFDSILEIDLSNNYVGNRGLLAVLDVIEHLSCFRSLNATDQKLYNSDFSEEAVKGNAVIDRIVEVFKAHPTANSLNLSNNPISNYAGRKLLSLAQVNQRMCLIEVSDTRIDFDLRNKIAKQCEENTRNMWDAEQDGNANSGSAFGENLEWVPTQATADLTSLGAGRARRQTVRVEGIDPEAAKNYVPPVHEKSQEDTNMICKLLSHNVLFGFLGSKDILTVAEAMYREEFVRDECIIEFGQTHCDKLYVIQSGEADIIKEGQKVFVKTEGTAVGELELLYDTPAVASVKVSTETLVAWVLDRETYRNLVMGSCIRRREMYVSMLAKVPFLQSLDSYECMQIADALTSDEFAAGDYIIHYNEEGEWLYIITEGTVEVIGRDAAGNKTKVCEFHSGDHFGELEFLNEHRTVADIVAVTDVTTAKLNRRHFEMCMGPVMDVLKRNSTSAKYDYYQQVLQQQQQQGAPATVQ
# T1 sequence (E9B6S9 1-371 partner): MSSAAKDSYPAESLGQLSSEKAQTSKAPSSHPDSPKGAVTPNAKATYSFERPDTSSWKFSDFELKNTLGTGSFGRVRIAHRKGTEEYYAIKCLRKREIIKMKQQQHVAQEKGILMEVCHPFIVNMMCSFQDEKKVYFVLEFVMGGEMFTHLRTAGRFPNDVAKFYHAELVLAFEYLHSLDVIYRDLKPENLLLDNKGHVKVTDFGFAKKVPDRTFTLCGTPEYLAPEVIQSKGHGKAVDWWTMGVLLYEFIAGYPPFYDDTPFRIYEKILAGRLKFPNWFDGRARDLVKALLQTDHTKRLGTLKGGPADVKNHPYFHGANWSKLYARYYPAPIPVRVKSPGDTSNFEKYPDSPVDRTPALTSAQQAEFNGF
# Assay: release of mNG::PKAC1 fluorescence from flagellar cytoskeletons, microscopy
# Type: biochemical
# Settings: indirect assay of PKAR1 activation; detergent-extracted cytoskeletons in PEME buffer; 10 nM to 10 µM inosine
structure (smiles),measurement,value
OC[C@H]1O[C@@H](n2cnc3c(O)ncnc32)[C@H](O)[C@@H]1O [inosine],EC50,~9 nM
